In patent US20180258100A1, “RAPAMYCIN ANALOGS SHOWING IMPROVED mTORC1 SPECIFICITY” (priority 2015, published 2018):

How the values were obtained:
mTORC2 [1] = target: T1, mTORC2 (Homo sapiens, UniProt P42345+P62942); assay: AlphaLISA SureFire Akt 1/2/3 in PC3 cells, phosphorylation of Akt at Ser473 (mTORC2 inhibition); format: cell-based
T1 construct: endogenous in cells; host or cells: PC3 cells
Experimental: PC3 cells were maintained in F12K media (ATCC/GIBCO, Cat# ATCC 30-2004) supplemented with additional 10% FBS (Gemini, cat#100-106), 1% Penicillin/Streptomycin (Life Technologies, cat #15140-122), and 2 mM L-Glutamine (Life Technologies, cat#25030) and cultured at 37° C. For AlphaLISA experiments, cells were seeded in 96-well plates for 24 hours and treated at various concentrations of compound (from approx. 8 fM to 10 μM) for 24 hours. Cells were harvested by lysis in the buffer supplied with the AlphaLISA kit.
mTORC1 inhibition was determined using the AlphaLISA® SureFire® kit (Perkin Elmer) which measures phosphorylation of S6 kinase at positions Ser^240 and Ser^244. mTORC2 inhibition was determined by the AlphaLISA® SureFire® kit for Akt 1/2/3, which determines phospholyltation of Akt protein at position Ser^473. Cells from plates were lysed and incubated for 10 min at room temperature while shaking. Cell lysates were incubated with acceptor mix for 2 hours at room temperature; the donor mix was then added and the resulting solution was incubated for 2 hours at room temperature. AlphaLISA® signal was determined on a Fusion-Alpha FP HT (Perkin Elmer). Percent inhibition was calculated by comparison to the highest inhibition value obtained in the response-concentration curve. IC50s were calculated using Prism software. […]

mTORC2 [2] = target: mTORC2 (Mus musculus, UniProt P26883+Q9JLN9); assay: Western blot of mouse tissues after 3 weeks i.p. dosing, mTORC2 (P-AKT/Total AKT); format: in vivo, female C57BL/6J mice; conditions: soleus muscle, 12 mg/kg i.p. every other day for 3 weeks
Experimental: (§1) 10-week old female C57BL/6J mice were given intraperitoneal injections of 8 mg/kg rapamycin (LC laboratories), 12 mg/kg compound 390 or vehicle every other day for three weeks (N=5 mice/group), such as to mimic chronic exposure conditions. 24 hours after the last injection, tissues were dissected from the mice and immediately frozen in liquid nitrogen. The tissues were homogenized using the Omni TH homogenizer (Omni International) on ice in RIPA buffer and then centrifuged at 13,000 rpm for 15 minutes at 4° C. The supernatants were collected and protein concentration was determined using the DC protein assay (Biorad).
The mTORC1/2 inhibition was determined by Western blots. Equal amounts of protein were resolved by SDS-PAGE and transferred to nitrocellulose membrane using the Invitrogen Nu-Page system. The membranes were blocked for 1 h in 5% milk and incubated overnight in the appropriate antibodies. The following day, blots were washed 3 times in TBST, incubated for 2 h with secondary antibodies (donkey anti rabbit hrp conjugated), and finally washed an additional 3 times in TBST. ECL Prime (Amersham) was used to detect the proteins of interest and ImageJ software was used to quantify the band intensity of the Western blots.

[3] = Steady state glucose levels after one week of i.p. dosing; format: in vivo, female C57BL/6J mice; conditions: 12 mg/kg i.p. every other day, versus vehicle
Experimental: as §1
Steady state glucose levels were determined after one week from study initiation using a Bayer Contour blood glucose meter and test strips from small blood samples, which were withdrawn from a tail vein nick. At the end of the second week, the animals were challenged by administration of 2 mg/kg glucose; glucose levels were determined for two hours following the challenge at 30 min intervals.

[4] = Glucose challenge response; format: in vivo, female C57BL/6J mice; conditions: 2 mg/kg glucose after 1 week; rapamycin 8 mg/kg, compound 390 12 mg/kg i.p. every other day
Experimental: as §1
Steady state glucose levels were determined after one week from study initiation using a Bayer Contour blood glucose meter and test strips from small blood samples, which were withdrawn from a tail vein nick. […]

[5] = Insulin challenge response; format: in vivo, female C57BL/6J mice; conditions: 0.75 IU/kg insulin after 2 weeks; rapamycin 8 mg/kg, compound 390 12 mg/kg i.p. every other day
Experimental: FIG. 10. Response to insulin challenge following administration of 0.75 IU/kg insulin at t=2 weeks following the initiation of the intraperitoneal administrations of 8 mg/kg rapamycin, 12 mg/kg compound 390 or vehicle control every other day in female mice (N=5).
as §1

[6] = Glucose tolerance test after 2 weeks of chronic dosing; format: in vivo, male C57BL/6J mice; conditions: rapamycin 8 mg/kg, compound 390 12 mg/kg every other day, male mice
Experimental: (§2) Fortyfive C57BL/6J male mice, housed three per cage, were weighed and their body composition was measured with an EchoMRI 3-in-1 system. […] Mice received every-other-day injections of either vehicle, rapamycin (8 mg/kg), or compound 390 (12 mg/kg). A glucose tolerance test was performed after 2 weeks (morning after the 8th injection). A pyruvate tolerance test was performed after 3 weeks. Glucose stimulated insulin secretion assay was performed after 4 weeks and additional blood was collected for whole blood analysis. Body composition was measured on day −2 and day 31.
Mice were fasted overnight for 16 hours and then injected with either glucose (1 g/kg) or pyruvate (2 g/kg) intraperitoneally. For glucose and pyruvate tolerance tests, small blood samples were taken from a tail vein nick at time intervals and read using a Bayer Contour blood glucose meter and test strips. For glucose-stimulated insulin secretion, blood glucose levels were read using a glucometer and then 50 μL of blood was collected into a heparinized tube immediately prior to and 15 minutes following glucose administration. Insulin levels were determined using a Mouse Insulin ELISA kit (Crystal Chem).

[7] = Fat mass by EchoMRI body composition after four weeks; format: in vivo, male C57BL/6J mice; conditions: 4 weeks of every other day administration; rapamycin 8 mg/kg, compound 390 12 mg/kg; versus vehicle
Experimental: Fortyfive C57BL/6J male mice, housed three per cage, were weighed and their body composition was measured with an EchoMRI 3-in-1 system. Cages were sorted into three groups—vehicle, rapamycin, and compound 390—such that the average weight was similar for all three groups. Mice received every-other-day injections of either vehicle, rapamycin (8 mg/kg), or compound 390 (12 mg/kg). A glucose tolerance test was performed after 2 weeks (morning after the 8th injection). A pyruvate tolerance test was performed after 3 weeks. Glucose stimulated insulin secretion assay was performed after 4 weeks and additional blood was collected for whole blood analysis. Body composition was measured on day −2 and day 31.

mTORC1 = mTORC1 (Mus musculus, UniProt P26883+Q9JLN9); assay: Immunoblot of liver, muscle and brain after four weeks, mTORC1; format: in vivo, male C57BL/6J mice; conditions: rapamycin 8 mg/kg, compound 390 12 mg/kg i.p. every other day
Experimental: as §2
For western blotting, antibodies to phospho-Akt S473 (4060), Akt (4691), phospho-S6 ribosomal protein (2215), S6 ribosomal protein (2217), phospho-4E-BP1 S65 (9451) and 4E-BP1 (9452) were from Cell Signaling Technology.
Cells and tissue samples were lysed in cold RIPA buffer supplemented with phosphatase inhibitor and protease inhibitor cocktail tablets (PI88669, Fisher Scientific). Tissues were lysed in RIPA buffer using a FastPrep 24 (M.P. Biomedicals) with bead-beating tubes and ceramic beads (Mo-Bio Laboratories), and then centrifuged. Protein concentration was determined by Bradford assay (Pierce Biotechnology). Protein was separated by sodium dodecylsulphate-polyacrylamide gel electrophoresis (SDS-PAGE) on 8, 10, or 16% resolving gels (Life Technologies).

mTORC2 complex = mTORC2 complex (Mus musculus, UniProt P26883+Q9JLN9); assay: mTORC2 assembly: immunoprecipitation of Rictor from liver and immunoblotting for mTOR; format: in vivo, male C57BL/6J mice; conditions: liver, four weeks; rapamycin 8 mg/kg, compound 390 12 mg/kg i.p. every other day
Experimental: as §2

[8] = heart, visceral fat, pancreas, kidney

Chain of mTORC2 (Mus musculus, UniProt P26883+Q9JLN9) (P26883 2-108 limits assumed, other chains not shown): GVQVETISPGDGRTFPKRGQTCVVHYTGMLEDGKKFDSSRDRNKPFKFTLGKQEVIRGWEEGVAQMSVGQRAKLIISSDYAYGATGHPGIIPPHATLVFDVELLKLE
Chain of mTORC2 complex (P26883 2-108 limits assumed, other chains not shown): as above
T1 sequence (P62942 2-108 limits assumed, other chains not shown): as the sequence (P26883 2-108 limits assumed, other chains not shown) above, with T49M, I75T, S78P counted along it

## CO[C@H]1CC2CC[C@@H](C)[C@@](O)(O2)C(=O)C(=O)N2CCCC[C@H]2C(=O)O[C@H]([C@@H](C)CC2CCC(O)CC2)CC(=O)[C@@H](C)/C=C(\C)[C@H](O)[C@H](O)C(=O)[C@@H](C)C[C@H](C)/C=C/C=C/C=C/1C (stereo partly drawn) [compound 390, 27-O-Desmethyl-39-Desmethoxy Rapamycin]
mTORC2 [1]
  lower inhibition of mTORC2 compared to rapamycin: ~150 fold
mTORC2 [2]; gastrocnemius muscle, lung, liver
  mTORC2 inhibition in tissues: very weak
mTORC2 [2]; [8]
  change of mTORC2 activity in tissues: small upregulation of mTORC2 activity
  mTORC2 inhibition in tissues: no inhibition of mTORC2
[3]
  change of steady state glucose plasma levels: does not produce any substantial or statistically significant increase
[4]
  glucose response after glucose challenge (glucose intolerance): indistinguishable from the vehicle-receiving control animals
[5]
  glucose response after insulin challenge (insulin resistance): indistinguishable from the vehicle-receiving control animals
[6]; after 2 weeks
  glucose tolerance test: identical to the vehicle-receiving animals
[6]; chronic dosing
  fasting hyperglycemia: does not cause
[7]
  fat mass (adiposity): does not induce any increase of adiposity
mTORC1
  mTORC1 inhibition in liver, muscle and brain: significantly inhibits mTORC1 at approximately the same level as rapamycin
mTORC2 complex
  integrity of hepatic mTORC2 complex assembly: no effect upon hepatic mTORC2 assembly
